According to ChEMBL document CHEMBL1201862, “PubChem BioAssay data set” (2004):
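Interpolation was linear, between the two tested concentrations surrounding the appropriate level; five concentrations were tested over 48 hours in 96-well plates. Abbreviation: GI50, concentration required for 50% inhibition of growth.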 Active and inactive are the calls of the source. Rule as the data show it: active = GI50 up to about 1.1 µM and inactive = higher.

What was measured:
Experiment in all cases: NCI tumour cell line growth inhibition, 48 h
IGROV-1 = system: IGROV-1
UACC-257 = system: UACC-257
CCRF-CEM = system: CCRF-CEM
HOP-62 = system: HOP-62
OVCAR-5 = system: OVCAR-5
A498 = system: A498
U-251 = system: U-251
LOX IMVI = system: LOX IMVI
MCF7 = system: MCF7
MDA-N = system: MDA-N
EKVX = system: EKVX
SR = system: SR
MDA-MB-231 = system: MDA-MB-231
BT-549 = system: BT-549
NCI/ADR-RES = system: NCI/ADR-RES
NCI-H23 = system: NCI-H23
RXF 393 = system: RXF 393
Hs-578T = system: Hs-578T
T47D = system: T47D

Measured: GI50

O=C(NC(CS)C(=O)O)c1c2ccccc2nc2ccccc12 (stereo not drawn)
inactive: IGROV-1 38 µM | UACC-257 13.7 µM | CCRF-CEM 61.7 µM | HOP-62 38.7 µM | OVCAR-5 > 100 µM | A498 > 100 µM | U-251 75 µM | LOX IMVI 21.5 µM | MCF7 49.3 µM | MDA-N 14.5 µM | EKVX 47.5 µM | SR > 100 µM | MDA-MB-231 76.6 µM | BT-549 12.8 µM | NCI/ADR-RES 67.9 µM | NCI-H23 11.2 µM

N#C[C@](CO)(NC(=O)OCc1ccccc1)C(F)F
inactive: IGROV-1 > 100 µM | UACC-257 > 100 µM | RXF 393 > 100 µM | CCRF-CEM > 100 µM | HOP-62 > 100 µM | OVCAR-5 > 100 µM | A498 > 100 µM | U-251 > 100 µM | LOX IMVI > 100 µM | EKVX > 100 µM | Hs-578T > 100 µM | T47D > 100 µM | SR > 100 µM | MDA-MB-231 > 100 µM | BT-549 > 100 µM | NCI/ADR-RES > 100 µM | NCI-H23 > 100 µM

N#Cc1c(-c2ccc(Cl)cc2)c(C#N)c(=O)n(NS(=O)(=O)c2ccccc2)c1-c1ccccc1
inactive: UACC-257 > 25 µM | RXF 393 > 25 µM | CCRF-CEM > 25 µM | HOP-62 > 25 µM | OVCAR-5 > 25 µM | A498 > 25 µM | U-251 > 25 µM | LOX IMVI > 25 µM | MCF7 19.8 µM | MDA-N > 25 µM | MDA-MB-231 > 25 µM | BT-549 > 25 µM

COC(=O)c1cc2ccc(N)nc2[nH]c1=O
inactive: IGROV-1 > 100 µM | UACC-257 > 100 µM | RXF 393 > 100 µM | HOP-62 > 100 µM | OVCAR-5 > 100 µM | A498 > 100 µM | U-251 > 100 µM | LOX IMVI > 100 µM | MCF7 > 100 µM | MDA-N > 100 µM | EKVX > 100 µM | T47D > 100 µM | MDA-MB-231 > 100 µM | BT-549 > 100 µM | NCI/ADR-RES > 100 µM | NCI-H23 > 100 µM

CC(C)CCC[C@@H](C)C1CCC2[C@@H]3CCC4CC(CCC=C(c5cc(Cl)c(OC(=O)c6ccccc6)c(C(=O)O)c5)c5cc(Cl)c(OC(=O)c6ccccc6)c(C(=O)O)c5)CC[C@]4(C)C3CC[C@@]21C (stereo partly drawn)
inactive: IGROV-1 34.8 µM | UACC-257 58.2 µM | RXF 393 > 100 µM | CCRF-CEM > 100 µM | HOP-62 > 100 µM | OVCAR-5 > 100 µM | A498 52.5 µM | U-251 > 100 µM | MCF7 > 100 µM | MDA-N > 100 µM | EKVX 88.3 µM | Hs-578T > 100 µM | MDA-MB-231 12.6 µM | BT-549 > 100 µM | NCI/ADR-RES > 100 µM | NCI-H23 > 100 µM

Nn1c(S)nnc1CCCCCCCCc1nnc(S)n1N
inactive: IGROV-1 > 100 µM | UACC-257 > 100 µM | RXF 393 > 100 µM | CCRF-CEM 90.8 µM | HOP-62 > 100 µM | OVCAR-5 > 100 µM | A498 > 100 µM | U-251 > 100 µM | MCF7 > 100 µM | MDA-N > 100 µM | EKVX > 100 µM | T47D > 100 µM | SR > 100 µM | MDA-MB-231 > 100 µM | BT-549 > 100 µM | NCI/ADR-RES > 100 µM | NCI-H23 > 100 µM

CCOC(=O)C1=C(C)NC(=O)NC1c1coc2cc(C)cc(C)c2c1=O (stereo not drawn)
inactive: IGROV-1 > 60.1 µM | UACC-257 40.2 µM | RXF 393 25.4 µM | CCRF-CEM 37.7 µM | HOP-62 36.8 µM | OVCAR-5 49 µM | A498 > 100 µM | U-251 32.1 µM | LOX IMVI 69.2 µM | MCF7 36.2 µM | EKVX 31.6 µM | Hs-578T 56.2 µM | T47D > 69.5 µM | SR 10.2 µM | MDA-MB-231 > 61.5 µM | BT-549 99.3 µM | NCI/ADR-RES 27.5 µM | NCI-H23 > 86.7 µM

CC(=O)/C=C/CCC(=O)/C=C/C(=O)OC(CCC(=O)/C=C/C(=O)O)CC(C)=O (stereo not drawn)
inactive: IGROV-1 > 100 µM | UACC-257 > 100 µM | RXF 393 > 100 µM | CCRF-CEM 43.8 µM | HOP-62 > 100 µM | OVCAR-5 > 100 µM | U-251 > 100 µM | MCF7 93.1 µM | MDA-N > 100 µM | EKVX > 100 µM | T47D > 100 µM | SR 88.9 µM | MDA-MB-231 > 100 µM | BT-549 > 100 µM | NCI/ADR-RES > 100 µM | NCI-H23 > 100 µM

CO[C@H]1/C=C/O[C@@]2(C)Oc3c(C)c(O)c4c(O)c(c(/C=N/N5CCN(C)CC5)c(O)c4c3C2=O)NC(=O)/C(C)=C\C=C\[C@H](C)[C@H](O)[C@@H](C)[C@@H](O)[C@@H](C)[C@H](OC(C)=O)[C@@H]1C [RIFAMPIN]
inactive: IGROV-1 73.6 µM | UACC-257 80.5 µM | RXF 393 > 100 µM | CCRF-CEM 26.2 µM | HOP-62 > 100 µM | OVCAR-5 > 100 µM | A498 > 100 µM | MCF7 > 100 µM | MDA-N > 100 µM | EKVX > 100 µM | T47D > 100 µM | SR 3.32 µM | MDA-MB-231 24.5 µM | BT-549 62.8 µM | NCI/ADR-RES > 100 µM
